From patent US9382204B2, “Inhibitors targeting the DNA-binding domain of human STAT3 for treatment of metastatic cancers” (Indiana University Research and Technology Corporation, priority 2013, dated 2016) come the findings set out here.

Like-named read-outs stand apart in the source and are kept apart here.

The assay relates to STAT3. As to the kind of experiment: STAT3-dependent luciferase reporter assay in MDA-MB-231-STAT3 stable cells. In kind it is cell-based, human. To be noted: 20 μM; for inhibition of luciferase expression compared to DMSO vehicle control: significant = p value less than 0.05; for activity at 20 µM: Homo sapiens. In a few lines:
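MDA-MB-231 cells stably carrying a STAT3-dependent luciferase reporter, exposed to compounds at 20 μM for 48 h (0.1% v/v DMSO final), then luciferase activity measured. Concentration-response treatments ran 72 h; STAT3-independent control used H1299 cells transiently transfected with p27-promoter luciferase, 48 h.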
(Reporter assays use an easily measured gene product as a stand-in for the process of interest.)

Where [1] appears, read: mean of experiments, relative to DMSO.

Consider `COc1ccc(C=C2C=C(c3ccccc3)N(c3ccc(Cl)c(Cl)c3)C2=O)cc1` [Compound A52], for which, for the setting “experiment 1, relative to DMSO”, the “Rel. luciferase activity (%) 1” value amounted to 39.5%. The “Rel. luciferase activity (%) 2” value (experiment 2, relative to DMSO) was determined as 141.9%. For the same compound, the “Rel. luciferase activity (%) 3” value (experiment 3, relative to DMSO) amounted to 77.7%. In addition, the “Rel. luciferase activity (%) Mean” value under setting [1] is on record as 86.4%.
For the compound `COC(=O)c1cccc(N2C(=O)C(=Cc3ccc([N+](=O)[O-])cc3)C=C2c2ccccc2)c1` [Compound A34], the “Rel. luciferase activity (%) 1” value (experiment 1, relative to DMSO) came to 61.1%. Besides, where the note is “experiment 2, relative to DMSO”, the “Rel. luciferase activity (%) 2” value is recorded as 103.6%. Besides, the “Rel. luciferase activity (%) 3” value (experiment 3, relative to DMSO) is reported as 80.8%. For the same compound, the “Rel. luciferase activity (%) Mean” value under setting [1] was found to be 81.9%.
`COc1cccc(N2C(=O)C(=Cc3ccc(-c4ccc([N+](=O)[O-])cc4)o3)C=C2c2ccccc2)c1` [Compound A12]: the “Rel. luciferase activity (%) 1” value (experiment 1, relative to DMSO) is listed as 34.2%. Besides, under “experiment 2, relative to DMSO”, the “Rel. luciferase activity (%) 2” value was 105.8%. Also, the “Rel. luciferase activity (%) 3” value (experiment 3, relative to DMSO) was 55.4%. Further, the “Rel. luciferase activity (%) Mean” value under setting [1] was 65.1%.
`COc1ccc(N2C(=O)C(=Cc3ccc(-c4ccc([N+](=O)[O-])cc4)o3)C=C2c2ccccc2)cc1` [Compound A7]: for the setting “experiment 1, relative to DMSO”, the “Rel. luciferase activity (%) 1” value amounted to 99.6%. Where the note is “experiment 2, relative to DMSO”, the “Rel. luciferase activity (%) 2” value was 109.4%. The “Rel. luciferase activity (%) 3” value (experiment 3, relative to DMSO) is 72.3%. Under setting [1], the “Rel. luciferase activity (%) Mean” value worked out at 93.8%.
With `O=C1C(=Cc2ccc(-c3ccc([N+](=O)[O-])cc3)o2)C=C(c2ccccc2)N1c1ccccc1Cl` [Compound A14], the “Rel. luciferase activity (%) 1” value (experiment 1, relative to DMSO) is recorded as 140.4%. Also, the “Rel. luciferase activity (%) 2” value (experiment 2, relative to DMSO) is 129.3%. Besides, the “Rel. luciferase activity (%) 3” value (experiment 3, relative to DMSO) amounted to 72.3%. Besides, under setting [1], the “Rel. luciferase activity (%) Mean” value worked out at 114.0%.
On to `Cc1ccc(N2C(=O)C(=Cc3ccc(-c4ccc([N+](=O)[O-])cc4)o3)C=C2c2ccccc2)cc1` [Compound A4], for which the “Rel. luciferase activity (%) 1” value (experiment 1, relative to DMSO) is listed as 117.8%. The “Rel. luciferase activity (%) 2” value (experiment 2, relative to DMSO) was 108.4%. The “Rel. luciferase activity (%) 3” value (experiment 3, relative to DMSO) was determined as 103.4%. Under setting [1], the “Rel. luciferase activity (%) Mean” value is 109.9%.
Consider `Cc1ccc(N2C(=O)C(=Cc3ccc(-c4cc(Cl)ccc4Cl)o3)C=C2c2ccccc2)cc1[N+](=O)[O-]` [Compound A3], for which the “Rel. luciferase activity (%) 1” value (experiment 1, relative to DMSO) was 116.7%. Further, the “Rel. luciferase activity (%) 2” value (experiment 2, relative to DMSO) was found to be 104.0%. Also, for the setting “experiment 3, relative to DMSO”, the “Rel. luciferase activity (%) 3” value was 101.3%. Moreover, under setting [1], the “Rel. luciferase activity (%) Mean” value is 107.3%.
With `COc1ccc(C=C2C=C(c3ccccc3)N(c3ccc(N(C)C)cc3)C2=O)cc1` [Compound A78], the “Rel. luciferase activity (%) 1” value (experiment 1, relative to DMSO) is recorded as 71.7%. Moreover, where the note is “experiment 2, relative to DMSO”, the “Rel. luciferase activity (%) 2” value is 107.9%. For the same compound, the “Rel. luciferase activity (%) 3” value (experiment 3, relative to DMSO) came to 61.0%. The “Rel. luciferase activity (%) Mean” value under setting [1] is 80.2%.
With `COC(=O)c1cc(N2C(=O)C(=Cc3ccc(Cl)cc3)C=C2c2ccccc2)ccc1Cl` [Compound A66], the “Rel. luciferase activity (%) 1” value (experiment 1, relative to DMSO) is on record as 90.3%. The “Rel. luciferase activity (%) 2” value (experiment 2, relative to DMSO) turned out to be 110.5%. Also, the “Rel. luciferase activity (%) 3” value (experiment 3, relative to DMSO) worked out at 73.6%. Also, the “Rel. luciferase activity (%) Mean” value under setting [1] was determined as 91.5%.
In the case of `CCOC(=O)C1=C(C)N(c2ccc(OCC)cc2)C(=O)/C1=C\c1ccc([N+](=O)[O-])cc1` [Compound A79], the “inhibition of luciferase expression compared to DMSO vehicle control” value was “significantly inhibited”. In addition, the activity at 20 µM (experiment 1, relative to DMSO, read-out: Rel. luciferase activity (%) 1) turned out to be 10.2%. The activity at 20 µM (experiment 2, relative to DMSO, read-out: Rel. luciferase activity (%) 2) is 44.8%. Besides, the activity at 20 µM (experiment 3, relative to DMSO, read-out: Rel. luciferase activity (%) 3) came to 55.6%. Further, the activity at 20 µM (mean of experiments, relative to DMSO, read-out: Rel. luciferase activity (%) Mean) was 36.9%.
For the compound `COC(=O)c1ccc(N2C(=O)C(=Cc3ccc(Cl)cc3)C=C2c2ccccc2)cc1` [Compound A23], under “experiment 1, relative to DMSO”, the “Rel. luciferase activity (%) 1” value was 99.2%. Also, under “experiment 2, relative to DMSO”, the “Rel. luciferase activity (%) 2” value is listed as 103.2%. Besides, where the note is “experiment 3, relative to DMSO”, the “Rel. luciferase activity (%) 3” value was determined as 69.4%. The “Rel. luciferase activity (%) Mean” value under setting [1] was found to be 90.6%.
On the same counts, the results for `COC(=O)c1cccc(N2C(=O)C(=Cc3ccc(OC)cc3)C=C2c2ccccc2)c1` [Compound A50] are 168.6%, 187.0%, 153.6% and 169.7%.
`O=C1C(=Cc2ccc(-c3ccc([N+](=O)[O-])cc3)o2)C=C(c2ccccc2)N1c1ccc(Cl)cc1` [Compound A6]: the “Rel. luciferase activity (%) 1” value (experiment 1, relative to DMSO) is on record as 110.9%. For the same compound, the “Rel. luciferase activity (%) 2” value (experiment 2, relative to DMSO) was determined as 112.7%. The “Rel. luciferase activity (%) 3” value (experiment 3, relative to DMSO) was found to be 71.0%. Also, under setting [1], the “Rel. luciferase activity (%) Mean” value was determined as 98.2%.
As for `O=C1C(=Cc2ccc([N+](=O)[O-])cc2)C=C(c2ccccc2)N1c1ccc(Nc2ccccc2)cc1` [Compound A49], where the note is “experiment 1, relative to DMSO”, the “Rel. luciferase activity (%) 1” value was determined as 93.7%. Moreover, under “experiment 2, relative to DMSO”, the “Rel. luciferase activity (%) 2” value is reported as 124.2%. For the same compound, the “Rel. luciferase activity (%) 3” value (experiment 3, relative to DMSO) was 90.2%. Moreover, the “Rel. luciferase activity (%) Mean” value under setting [1] came out at 102.7%.
Consider `O=C1C(=Cc2ccc(-c3ccc([N+](=O)[O-])cc3)o2)C=C(c2ccccc2)N1c1ccc(F)cc1` [Compound A11], for which the “Rel. luciferase activity (%) 1” value (experiment 1, relative to DMSO) is recorded as 73.5%. Moreover, where the note is “experiment 2, relative to DMSO”, the “Rel. luciferase activity (%) 2” value was 101.5%. For the same compound, the “Rel. luciferase activity (%) 3” value (experiment 3, relative to DMSO) was 91.7%. The “Rel. luciferase activity (%) Mean” value under setting [1] was 88.9%.
`COc1cccc(N2C(=O)C(=Cc3ccc([N+](=O)[O-])cc3)C=C2c2ccccc2)c1` [Compound A41]: the “inhibition of luciferase expression compared to DMSO vehicle control” value is “significantly inhibited”. Moreover, where the note is “experiment 1, relative to DMSO”, the “Rel. luciferase activity (%) 1” value is 60.5%. In addition, under “experiment 2, relative to DMSO”, the “Rel. luciferase activity (%) 2” value worked out at 79.5%. The “Rel. luciferase activity (%) 3” value (experiment 3, relative to DMSO) came out at 81.2%. Moreover, the “Rel. luciferase activity (%) Mean” value under setting [1] was found to be 73.7%.
As for `O=C1C(=Cc2ccc(-c3ccc([N+](=O)[O-])cc3)o2)C=C(c2ccccc2)N1Cc1ccccc1` [Compound A64], where the note is “experiment 1, relative to DMSO”, the “Rel. luciferase activity (%) 1” value was found to be 79.8%. Also, the “Rel. luciferase activity (%) 2” value (experiment 2, relative to DMSO) is 109.6%. Further, the “Rel. luciferase activity (%) 3” value (experiment 3, relative to DMSO) stood at 49.0%. Moreover, the “Rel. luciferase activity (%) Mean” value under setting [1] is given as 79.5%.
In the case of `O=C1C(=Cc2ccc(Cl)cc2)C=C(c2ccccc2)N1c1ccc2ccccc2c1` [Compound A59], under “experiment 1, relative to DMSO”, the “Rel. luciferase activity (%) 1” value is listed as 124.7%. Under “experiment 2, relative to DMSO”, the “Rel. luciferase activity (%) 2” value was 148.5%. Also, under “experiment 3, relative to DMSO”, the “Rel. luciferase activity (%) 3” value came out at 80.5%. In addition, the “Rel. luciferase activity (%) Mean” value under setting [1] amounted to 117.9%.
As to `O=C1C(=Cc2ccc([N+](=O)[O-])cc2)C=C(c2ccccc2)N1c1cccc(Cl)c1` [Compound A38], the “Rel. luciferase activity (%) 1” value (experiment 1, relative to DMSO) came to 66.5%. For the same compound, for the setting “experiment 2, relative to DMSO”, the “Rel. luciferase activity (%) 2” value worked out at 119.9%. The “Rel. luciferase activity (%) 3” value (experiment 3, relative to DMSO) stood at 88.8%. Besides, the “Rel. luciferase activity (%) Mean” value under setting [1] worked out at 91.8%.
For `O=C1C(=Cc2ccc(Cl)cc2)C=C(c2ccccc2)N1c1ccc(Nc2ccccc2)cc1` [Compound A28], the “Rel. luciferase activity (%) 1” value (experiment 1, relative to DMSO) is on record as 67.2%. The “Rel. luciferase activity (%) 2” value (experiment 2, relative to DMSO) is listed as 106.0%. Further, the “Rel. luciferase activity (%) 3” value (experiment 3, relative to DMSO) is 62.1%. In addition, the “Rel. luciferase activity (%) Mean” value under setting [1] worked out at 78.4%.
As to `O=C(O)c1cc(N2C(=O)C(=Cc3ccc([N+](=O)[O-])cc3)C=C2c2ccccc2)ccc1O` [Compound A70], for the setting “experiment 1, relative to DMSO”, the “Rel. luciferase activity (%) 1” value turned out to be 99.0%. Besides, the “Rel. luciferase activity (%) 2” value (experiment 2, relative to DMSO) is given as 97.9%. Also, where the note is “experiment 3, relative to DMSO”, the “Rel. luciferase activity (%) 3” value is recorded as 92.8%. For the same compound, under setting [1], the “Rel. luciferase activity (%) Mean” value was 96.5%.
With `O=C1C(=Cc2ccc(Cl)cc2)C=C(c2ccccc2)N1c1ccccc1` [Compound A15], the “Rel. luciferase activity (%) 1” value (experiment 1, relative to DMSO) is 98.4%. In addition, the “Rel. luciferase activity (%) 2” value (experiment 2, relative to DMSO) worked out at 99.9%. For the same compound, the “Rel. luciferase activity (%) 3” value (experiment 3, relative to DMSO) was determined as 60.1%. Further, the “Rel. luciferase activity (%) Mean” value under setting [1] turned out to be 86.1%.
